The first assay concerns the target T1, DGKα (Homo sapiens, UniProt P23743).
Test: not given
The note with it: literature report; cited from earlier work.
Target sequence in this assay (P23743 whole entry, species assumed): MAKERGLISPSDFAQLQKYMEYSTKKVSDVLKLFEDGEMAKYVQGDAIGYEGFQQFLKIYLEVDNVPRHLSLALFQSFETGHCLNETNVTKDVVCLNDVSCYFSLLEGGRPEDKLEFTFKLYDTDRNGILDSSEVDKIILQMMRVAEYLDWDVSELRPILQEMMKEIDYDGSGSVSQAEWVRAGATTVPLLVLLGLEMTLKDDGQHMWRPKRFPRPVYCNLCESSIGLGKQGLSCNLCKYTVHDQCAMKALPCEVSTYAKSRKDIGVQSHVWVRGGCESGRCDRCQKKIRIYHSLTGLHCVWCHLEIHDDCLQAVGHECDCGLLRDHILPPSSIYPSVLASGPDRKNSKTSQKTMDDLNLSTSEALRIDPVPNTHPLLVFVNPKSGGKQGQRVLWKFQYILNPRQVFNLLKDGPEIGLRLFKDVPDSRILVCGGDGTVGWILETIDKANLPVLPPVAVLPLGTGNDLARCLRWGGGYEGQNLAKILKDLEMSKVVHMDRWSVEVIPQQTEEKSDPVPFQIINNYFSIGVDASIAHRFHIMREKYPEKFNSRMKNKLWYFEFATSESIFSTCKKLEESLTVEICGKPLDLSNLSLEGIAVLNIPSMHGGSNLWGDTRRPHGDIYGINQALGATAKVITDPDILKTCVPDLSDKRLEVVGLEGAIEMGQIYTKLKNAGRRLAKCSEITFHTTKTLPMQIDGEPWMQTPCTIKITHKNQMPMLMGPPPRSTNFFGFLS
For the molecule `Cc1ccc2c(C(=O)CN3CCN(C(=O)c4ccco4)CC3)c(C)[nH]c2c1` [AMB639752], the “inhibitory activity on DGKα” value is recorded as “micromolar”. As to `O=C1/C(=C\C=C\c2ccco2)SC(=S)N1NS(=O)(=O)c1ccccc1` [CU-3], the “inhibitory activity on DGKα” value is “sub-micromolar”.

Another assay deals with T1, DGKα. The assay can be described thus: Human DGKα kinase activity inhibition assay (ADP-Glo). On the set-up: made in house; host or cells: Sf9 insect cells, baculovirus. Format: biochemical. The note with it: in vitro, C-terminally FLAG-tagged recombinant full-length human DGKα, 1,2-dioleoyl-sn-glycerol substrate, ADP-Glo readout. The procedure: Human DGKα Kinase Activity Inhibition Assay. Human DGKα inhibitory activity of compounds of the present invention was quantified employing the human DGKα kinase activity assay as described in the following paragraphs. In essence, the enzyme activity was measured by quantification of the adenosine-di-phosphate (ADP) generated as a co-product of the enzyme reaction via the “ADP-Glo™ Kinase Assay” kit from the company Promega. This detection system works as follows: In a first step the ATP not consumed in the kinase reaction is quantitatively converted to […] (“ADP-Glo-reagent”), then the adenylate cyclase is stopped and the ADP generated in the kinase reaction converted to ATP, which subsequently generates in a luciferase-based reaction a glow-luminescence signal (“Kinase Detection Reagent”). C-terminally FLAG-tagged, recombinant full-length human DGKα (expressed in baculovirus infected insect cells, purified using anti-Flag pulldown and size exclusion chromatography as described below, DGKa_hu_1) was used as enzyme. As substrate for the kinase 1,2-dioleoyl-sn-glycerol, reconstituted in octyl-β-D-glucopyranoside micelles, was used. For the preparation of the micelles, 1 volume of a 16.1 mM solution of 1,2-dioleoyl-sn-glycerol (Avanti, Cat. #08001-25G) in chloroform was slowly evaporated using a nitrogen stream. Subsequently, 22.55 volumes of a 510 mM solution of octyl-β-D-glucopyranoside (Sigma-Aldrich, Cat. #08001-10G) in 50 mM MOPS buffer (pH 7.4) were added, and the mixture was sonicated in an ultrasonic bath for 20 s. Then 35 volumes of 50 mM MOPS buffer (pH 7.4) were added to yield a solution of 0.28 mM 1,2 dioleoyl-sn-glycerol and 200 mM octyl-β-D-glucopyranoside, which was aliquoted, flash-frozen in liquid nitrogen, and stored at −20° C. until use. For each experiment, a fresh aliquot was quickly thawed and diluted 24-fold with aqueous assay buffer (described below) containing 95.7 μM adenosine triphosphate (Promega) to yield a 1.67-fold concentrated substrate solution. For the assay 50 nl of a 100-fold concentrated solution of the test compound in dimethyl sulfoxide (DMSO, Sigma) was pipetted into either a white 1536-well or a white low-volume 384-well microtiter plate (both Greiner Bio-One, Frickenhausen, Germany). […] The concentration of DGK a was adjusted depending of the activity of the enzyme lot and was chosen appropriate to have the assay in the linear range, a typical concentration is about 0.1 nM. The reaction was stopped by the addition of 2.5 μl of “ADP-Glo-reagent” (1 to 1.5 diluted with water) and the resulting mixture was incubated at 22° C. for 1 h to convert the ATP no t consumed in the kinase reaction completely to […]. […] The amount of emitted light was taken as a measure for the amount of ADP generated and thereby for the activity of the DGKα.
(ADP-Glo first removes unused ATP, then detects ADP through luciferase.)
Target sequence in this assay (P23743 with tags, fused parts or gaps): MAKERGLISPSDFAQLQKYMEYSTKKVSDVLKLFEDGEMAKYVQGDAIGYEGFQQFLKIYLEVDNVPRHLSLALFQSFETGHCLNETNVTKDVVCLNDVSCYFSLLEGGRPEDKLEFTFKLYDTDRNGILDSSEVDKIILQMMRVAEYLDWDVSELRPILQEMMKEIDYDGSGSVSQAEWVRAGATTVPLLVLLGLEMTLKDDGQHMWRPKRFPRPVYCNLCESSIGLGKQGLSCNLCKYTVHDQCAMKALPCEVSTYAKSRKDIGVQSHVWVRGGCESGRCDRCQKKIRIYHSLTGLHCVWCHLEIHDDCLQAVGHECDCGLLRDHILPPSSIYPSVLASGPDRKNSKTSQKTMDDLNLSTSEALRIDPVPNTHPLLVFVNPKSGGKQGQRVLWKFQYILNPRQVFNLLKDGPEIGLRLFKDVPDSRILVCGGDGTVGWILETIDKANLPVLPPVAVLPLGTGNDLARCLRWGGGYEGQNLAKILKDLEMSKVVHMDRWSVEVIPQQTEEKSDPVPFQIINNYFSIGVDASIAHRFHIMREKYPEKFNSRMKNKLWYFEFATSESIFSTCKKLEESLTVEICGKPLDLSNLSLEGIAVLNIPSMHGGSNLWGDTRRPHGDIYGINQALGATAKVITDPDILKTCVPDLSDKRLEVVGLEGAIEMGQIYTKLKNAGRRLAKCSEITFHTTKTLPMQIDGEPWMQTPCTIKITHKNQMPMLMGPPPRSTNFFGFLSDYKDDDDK
By IC50 is commonly meant the concentration at which inhibition is half-maximal. As to `Cn1c(=O)c(C(N)=O)c(N2CCC3(CCN(c4ccc(OC(F)(F)F)cc4)C3)CC2)c2ccccc21` [Example 25, 1-methyl-2-oxo-4-{2-[4-(trifluoromethoxy)phenyl]-2,8-diazaspiro[4.5]decan-8-yl}-1,2-dihydroquinoline-3-carboxamide], the IC50 is 3 nM. On the same count and under the same terms, the value for `Cn1c(=O)c(C(N)=O)c(N2CCC3(CN(c4ccc(Cl)cc4)C3)C2)c2ccccc21` [Example 26, 4-[2-(4-chlorophenyl)-2,6-diazaspiro[3.4]octan-6-yl]-1-methyl-2-oxo-1,2-dihydroquinoline-3-carboxamide] was 42 nM. On to `Cn1c(=O)c(C(N)=O)c(N2CCC3(CN(c4ccc(F)cc4)C3)C2)c2ccccc21` [Example 27, 4-[2-(4-fluorophenyl)-2,6-diazaspiro[3.4]octan-6-yl]-1-methyl-2-oxo-1,2-dihydroquinoline-3-carboxamide], for which the IC50 came out at 158 nM.

`CN(C)c1ccc(N2CC3(CCN(c4c(C(N)=O)c(=O)n(C)c5ccccc45)C3)C2)cc1` [Example 28, 4-{2-[4-(dimethylamino)phenyl]-2,6-diazaspiro[3.4]octan-6-yl}-1-methyl-2-oxo-1,2-dihydroquinoline-3-carboxamide]: the IC50 was 1720 nM. Still for that read-out and setting: the value for `Cn1c(=O)c(C#N)c(N2CCC3(CN(c4ccc(OC(F)(F)F)cc4)C3)C2)c2ccc(Br)cc21` [Example 29, 7-bromo-1-methyl-2-oxo-4-{2-[4-(trifluoromethoxy)phenyl]-2,6-diazaspiro[3.4]octan-6-yl}-1,2-dihydroquinoline-3-carbonitrile] was 46 nM. On the same count and under the same terms, for `Cn1c(=O)c(C#N)c(N2CCC3(CN(c4ccc(Cl)cc4)C3)C2)c2ccc(Br)cc21` [Example 30, 7-bromo-4-[2-(4-chlorophenyl)-2,6-diazaspiro[3.4]octan-6-yl]-1-methyl-2-oxo-1,2-dihydroquinoline-3-carbonitrile] the value was 75 nM; for `CN1CCN(c2ccc3c(N4CCC5(CCN(c6cccc(OC(F)(F)F)c6)C5)CC4)c(C#N)c(=O)n(C)c3c2)CC1` [Example 31, 1-methyl-7-(4-methylpiperazin-1-yl)-2-oxo-4-{2-[3-(trifluoromethoxy)phenyl]-2,8-diazaspiro[4.5]decan-8-yl}-1,2-dihydroquinoline-3-carbonitrile], 645 nM.

Consider `COCCN(C)c1ccc2c(N3CCC4(CCN(c5cccc(OC(F)(F)F)c5)C4)CC3)c(C#N)c(=O)n(C)c2c1` [Example 32, 7-[(2-methoxyethyl)(methyl)amino]-1-methyl-2-oxo-4-{2-[3-(trifluoromethoxy)phenyl]-2,8-diazaspiro[4.5]decan-8-yl}-1,2-dihydroquinoline-3-carbonitrile], for which the concentration for half-maximal inhibition (IC50) is 38 nM. `CN1CCN(c2ccc3c(N4CCC5(CCN(c6cccc(Cl)c6)C5)CC4)c(C#N)c(=O)n(C)c3c2)CC1` [Example 33, 4-[2-(3-chlorophenyl)-2,8-diazaspiro[4.5]decan-8-yl]-1-methyl-7-(4-methylpiperazin-1-yl)-2-oxo-1,2-dihydroquinoline-3-carbonitrile]: the IC50 was determined as 1170 nM. `COCCN(C)c1ccc2c(N3CCC4(CCN(c5cccc(Cl)c5)C4)CC3)c(C#N)c(=O)n(C)c2c1` [Example 34, 4-[2-(3-chlorophenyl)-2,8-diazaspiro[4.5]decan-8-yl]-7-[(2-methoxyethyl)(methyl)amino]-1-methyl-2-oxo-1,2-dihydroquinoline-3-carbonitrile]: the IC50 was 19 nM. With `COCCN(C)c1ccc2c(N3CCC4(CCN(c5cccc(OC(F)(F)F)c5)C4)CC3)c(C(N)=O)c(=O)n(C)c2c1` [Example 35, 7-[(2-methoxyethyl)(methyl)amino]-1-methyl-2-oxo-4-{2-[3-(trifluoromethoxy)phenyl]-2,8-diazaspiro[4.5]decan-8-yl}-1,2-dihydroquinoline-3-carboxamide], the IC50 is 68 nM. Still for that read-out and setting: for `COCCN(C)c1ccc2c(N3CCC4(CCN(c5cccc(Cl)c5)C4)CC3)c(C(N)=O)c(=O)n(C)c2c1` [Example 36, 4-[2-(3-chlorophenyl)-2,8-diazaspiro[4.5]decan-8-yl]-7-[(2-methoxyethyl)(methyl)amino]-1-methyl-2-oxo-1,2-dihydroquinoline-3-carboxamide] the value was 49 nM.

Values taken from patent US20230064809A1, “SUBSTITUTED AMINOQUINOLONES AS DGKALPHA INHIBITORS FOR IMMUNE ACTIVATION” (Bayer Aktiengesellschaft, priority 2019, published 2023).
